From paper PMC6783499, “Heteroglycoclusters With Dual Nanomolar Affinities for the Lectins LecA and LecB From Pseudomonas aeruginosa” (Frontiers in Chemistry, 2019)

How the values were obtained:
LecA = target: T1, LecA (Pseudomonas aeruginosa, UniProt Q05097); assay: biochemical; format: binding
T1 construct: made in house; host or cells: Escherichia coli BL21(DE3)
Procedure: (§1) The resulting hGCs were tested in solution with lectins by Isothermal Titration Calorimetry (Table 1) and their binding properties were compared with homoclusters 15–20 (Berthet et al., [2013]; Thomas et al., [2015b]) displaying either 4 and 16 βGal or αFuc units attached with an oxime or a triazole linker (Figure 3). […] Experiments were performed in direct injection mode (i.e., ligand in syringe and protein in cell) to minimize aggregation problems.
(§2) All chemical reagents were purchased from Aldrich (Saint Quentin Fallavier, France) or Acros (Noisy-Le-Grand, France). All protected amino acids and Fmoc-Gly-Sasrin® resin was obtained from Advanced ChemTech Europe (Brussels, Belgium). For peptides and glycopeptides, analytical RP-HPLC was performed on Waters system equipped with a Waters 2695 separations module and a Waters 2487 Dual Absorbance UV/Visible Detector. Analysis was carried out at 1.0 mL/min (EC 125/3 nucleosil 300-5 C18) with UV monitoring at 214 nm and 250 nm using a linear A–B gradient (buffer A: 0.09% CF3CO2H in water; buffer B: 0.09% CF3CO2H in 90% acetonitrile). Purifications were carried out at 22.0 mL/min (VP 250/21 nucleosil 100-7 C18) with UV monitoring at 214 nm and 250 nm using a linear A–B gradient. HRMS and ESI-MS and HRMS spectra of peptides and glycopeptides were measured on an Esquire 3000 spectrometer from Bruker. Lectins LecA and LecB were produced in recombinant form in Escherichia coli BL21(DE3) as described previously (Mitchell et al., [2005]; Blanchard et al., [2008]).
Other compounds were assayed with a VP-ITC isothermal titration calorimeter (Microcal). The experiments were carried out at 25°C. All glycocompounds and lectins LecB and LecA were dissolved in the same buffer composed of 20 mM Tris with 100 mM NaCl and 0.1 mM CaCl2 at pH 7.5. For PEAQ-ITC, the lectins were placed in the microcalorimeter cell (200 μL) at concentrations varying from 35 to 70 μM. […] For VP-ITC, the microcalorimeter cell (1.447 mL) contained the lectins with concentrations between 30 and 100 μM. […] The experimental data were fitted to a theoretical titration curve using the Microcal PEAQ-ITC analysis software, with ΔH (enthalpy change), Ka (association constant), and N (number of binding sites per monomer) as adjustable parameters. Dissociation constant (Kd), free energy change (ΔG), and entropy contributions (TΔS) were derived from the previous ones. Two or three independent titrations were performed for each ligand tested.

LecB = target: T2, LecB (Pseudomonas aeruginosa, UniProt Q9HYN5); assay: biochemical; format: binding; conditions: for n (stoichiometry, glycocluster molecules per lectin monomer) / –ΔG / –ΔH / −TΔS / Kd: 25°C; for n (stoichiometry, glycocluster molecules per lectin monomer): pH 7.5; for –ΔG / –ΔH / −TΔS: per mole of glycocluster; for Kd: 20 mM Tris, 100 mM NaCl, 0.1 mM CaCl2, pH 7.5, ligand in syringe
T2 construct: made in house; host or cells: Escherichia coli BL21(DE3)
Procedure: as §1, §2
Other compounds were assayed with a VP-ITC isothermal titration calorimeter (Microcal). The experiments were carried out at 25°C. All glycocompounds and lectins LecB and LecA were dissolved in the same buffer composed of 20 mM Tris with 100 mM NaCl and 0.1 mM CaCl2 at pH 7.5. For PEAQ-ITC, the lectins were placed in the microcalorimeter cell (200 μL) at concentrations varying from 35 to 70 μM. […] For VP-ITC, the microcalorimeter cell (1.447 mL) contained the lectins with concentrations between 30 and 100 μM. A total of 30 injections of 10 μL were performed intervals of 5 min while stirring at 310 rpm with glycoclusters concentrations varying from […]. The experimental data were fitted to a theoretical titration curve using the Microcal PEAQ-ITC analysis software, with ΔH (enthalpy change), Ka (association constant), and N (number of binding sites per monomer) as adjustable parameters. Dissociation constant (Kd), free energy change (ΔG), and entropy contributions (TΔS) were derived from the previous ones. Two or three independent titrations were performed for each ligand tested.

[1] = LecA, ITC, 25°C, per mole of glycocluster

T2 sequence (Q9HYN5 entry or part of it): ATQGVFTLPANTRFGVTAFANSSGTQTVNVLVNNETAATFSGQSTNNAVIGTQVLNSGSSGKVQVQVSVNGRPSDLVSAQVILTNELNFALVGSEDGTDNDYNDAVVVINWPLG
T1 sequence (Q05097 whole entry): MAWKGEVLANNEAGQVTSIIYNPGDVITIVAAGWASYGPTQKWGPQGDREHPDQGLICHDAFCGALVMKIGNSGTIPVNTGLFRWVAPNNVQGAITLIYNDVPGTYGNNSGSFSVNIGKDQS

| Compound | Kd (LecA) [µM] | –ΔH (binding enthalpy) (LecA; LecA, ITC) [kJ/mol] | n (stoichiometry, glycocluster molecules per lectin monomer) (LecA; LecA, ITC, 25°C, pH 7.5) | –ΔG (LecA; [1]) [kJ/mol] | –ΔH (LecA; [1]) [kJ/mol] | −TΔS (LecA; [1]) [kJ/mol] | binding to LecA in words (LecA; LecA, abstract) | α (relative potency compared to the monovalent compound) (LecA; LecA, relative to βGal-OMe) | β (relative potency per sugar unit) (LecA; LecA, relative to βGal-OMe) | n (stoichiometry, glycocluster molecules per lectin monomer) (LecB; ITC) | –ΔG (LecB; ITC) [kJ/mol] | –ΔH (LecB; ITC) [kJ/mol] | −TΔS (LecB; ITC) [kJ/mol] | Kd (LecB; ITC) [µM] | binding to LecB in words (LecB; abstract) | α (relative potency compared to the monovalent compound) (LecB; relative to αFuc-OMe) | β (relative potency per sugar unit) (LecB; relative to αFuc-OMe) | –ΔH (binding enthalpy) (LecB; ITC) [kJ/mol] |
| --- | --- | --- | --- | --- | --- | --- | --- | --- | --- | --- | --- | --- | --- | --- | --- | --- | --- | --- |
| C[C@@H]1NC(=O)[C@H](CCCCNC(=O)/C=N/O[C@@H]2O[C@H](CO)[C@H](O)[C@H](O)[C@H]2O)NC(=O)CNC(=O)[C@@H]2CCCN2C(=O)[C@H](CCCCNC(=O)/C=N/O[C@@H]2O[C@H](CO)[C@H](O)[C@H](O)[C@H]2O)NC(=O)[C@H](CCCCNC(=O)CO/N=C/C(=O)NCCCC[C@@H]2NC(=O)CNC(=O)[C@@H]3CCCN3C(=O)[C@H](CCCCNC(=O)/C=N/OCC(=O)NCCCC[C@@H]3NC(=O)[C@H](CCCCNC(=O)/C=N/O[C@@H]4O[C@H](CO)[C@H](O)[C@H](O)[C@H]4O)NC(=O)CNC(=O)[C@@H]4CCCN4C(=O)[C@H](CCCCNC(=O)/C=N/O[C@@H]4O[C@H](CO)[C@H](O)[C@H](O)[C@H]4O)NC(=O)[C@H](C)NC(=O)[C@H](CCCCNC(=O)/C=N/O[C@@H]4O[C@H](CO)[C@H](O)[C@H](O)[C@H]4O)NC(=O)CNC(=O)[C@@H]4CCCN4C(=O)[C@H](CCCCNC(=O)/C=N/O[C@@H]4O[C@H](CO)[C@H](O)[C@H](O)[C@H]4O)NC3=O)NC(=O)[C@H](CCCCN)NC(=O)[C@H](CCCCNC(=O)CO/N=C/C(=O)NCCCC[C@@H]3NC(=O)[C@H](CCCCn4cc(CO[C@@H]5O[C@@H](C)[C@@H](O)[C@@H](O)[C@@H]5O)nn4)NC(=O)CNC(=O)[C@@H]4CCCN4C(=O)[C@H](CCCCn4cc(CO[C@@H]5O[C@@H](C)[C@@H](O)[C@@H](O)[C@@H]5O)nn4)NC(=O)[C@H](C)NC(=O)[C@H](CCCCn4cc(CO[C@@H]5O[C@@H](C)[C@@H](O)[C@@H](O)[C@@H]5O)nn4)NC(=O)CNC(=O)[C@@H]4CCCN4C(=O)[C@H](CCCCn4cc(CO[C@@H]5O[C@@H](C)[C@@H](O)[C@@H](O)[C@@H]5O)nn4)NC3=O)NC(=O)CNC(=O)[C@@H]3CCCN3C(=O)[C@H](CCCCNC(=O)CO/N=C/C(=O)NCCCC[C@@H]3NC(=O)[C@H](CCCCn4cc(CO[C@@H]5O[C@@H](C)[C@@H](O)[C@@H](O)[C@@H]5O)nn4)NC(=O)CNC(=O)[C@@H]4CCCN4C(=O)[C@H](CCCCn4cc(CO[C@@H]5O[C@@H](C)[C@@H](O)[C@@H](O)[C@@H]5O)nn4)NC(=O)[C@H](C)NC(=O)[C@H](CCCCn4cc(CO[C@@H]5O[C@@H](C)[C@@H](O)[C@@H](O)[C@@H]5O)nn4)NC(=O)CNC(=O)[C@@H]4CCCN4C(=O)[C@H](CCCCn4cc(CO[C@@H]5O[C@@H](C)[C@@H](O)[C@@H](O)[C@@H]5O)nn4)NC3=O)NC(=O)[C@H](C)NC2=O)NC(=O)[C@H](CCCCNC(=O)/C=N/O[C@@H]2O[C@H](CO)[C@H](O)[C@H](O)[C@H]2O)NC(=O)CNC(=O)[C@@H]2CCCN2C(=O)[C@H](CCCCNC(=O)/C=N/O[C@@H]2O[C@H](CO)[C@H](O)[C@H](O)[C@H]2O)NC1=O [Compound 13] | 0.035 ± 0.0001 | 216 to 243 | 0.16 | 42.5 | 216 ± 3 | 173.6 | maintain their binding potency | 4,286 | 536 | 0.10 | 39.5 | 182.9 ± 8 | 143.3 | 0.118 ± 0.015 | maintain their binding potency | 3.6 | 0.5 |  |
| C[C@@H]1NC(=O)[C@H](CCCCNC(=O)/C=N/O[C@@H]2O[C@@H](C)[C@@H](O)[C@@H](O)[C@@H]2O)NC(=O)CNC(=O)[C@@H]2CCCN2C(=O)[C@H](CCCCNC(=O)/C=N/O[C@@H]2O[C@@H](C)[C@@H](O)[C@@H](O)[C@@H]2O)NC(=O)[C@H](CCCCNC(=O)CO/N=C/C(=O)NCCCC[C@@H]2NC(=O)CNC(=O)[C@@H]3CCCN3C(=O)[C@H](CCCCNC(=O)/C=N/OCC(=O)NCCCC[C@@H]3NC(=O)[C@H](CCCCNC(=O)/C=N/O[C@@H]4O[C@@H](C)[C@@H](O)[C@@H](O)[C@@H]4O)NC(=O)CNC(=O)[C@@H]4CCCN4C(=O)[C@H](CCCCNC(=O)/C=N/O[C@@H]4O[C@@H](C)[C@@H](O)[C@@H](O)[C@@H]4O)NC(=O)[C@H](C)NC(=O)[C@H](CCCCNC(=O)/C=N/O[C@@H]4O[C@@H](C)[C@@H](O)[C@@H](O)[C@@H]4O)NC(=O)CNC(=O)[C@@H]4CCCN4C(=O)[C@H](CCCCNC(=O)/C=N/O[C@@H]4O[C@@H](C)[C@@H](O)[C@@H](O)[C@@H]4O)NC3=O)NC(=O)[C@H](CCCCN)NC(=O)[C@H](CCCCNC(=O)CO/N=C/C(=O)NCCCC[C@@H]3NC(=O)[C@H](CCCCn4cc(CO[C@H]5O[C@H](CO)[C@@H](O)[C@H](O)[C@@H]5O)nn4)NC(=O)CNC(=O)[C@@H]4CCCN4C(=O)[C@H](CCCCn4cc(CO[C@H]5O[C@H](CO)[C@@H](O)[C@H](O)[C@@H]5O)nn4)NC(=O)[C@H](C)NC(=O)[C@H](CCCCn4cc(CO[C@H]5O[C@H](CO)[C@@H](O)[C@H](O)[C@@H]5O)nn4)NC(=O)CNC(=O)[C@@H]4CCCN4C(=O)[C@H](CCCCn4cc(CO[C@H]5O[C@H](CO)[C@@H](O)[C@H](O)[C@@H]5O)nn4)NC3=O)NC(=O)CNC(=O)[C@@H]3CCCN3C(=O)[C@H](CCCCNC(=O)CO/N=C/C(=O)NCCCC[C@@H]3NC(=O)[C@H](CCCCn4cc(CO[C@H]5O[C@H](CO)[C@@H](O)[C@H](O)[C@@H]5O)nn4)NC(=O)CNC(=O)[C@@H]4CCCN4C(=O)[C@H](CCCCn4cc(CO[C@H]5O[C@H](CO)[C@@H](O)[C@H](O)[C@@H]5O)nn4)NC(=O)[C@H](C)NC(=O)[C@H](CCCCn4cc(CO[C@H]5O[C@H](CO)[C@@H](O)[C@H](O)[C@@H]5O)nn4)NC(=O)CNC(=O)[C@@H]4CCCN4C(=O)[C@H](CCCCn4cc(CO[C@H]5O[C@H](CO)[C@@H](O)[C@H](O)[C@@H]5O)nn4)NC3=O)NC(=O)[C@H](C)NC2=O)NC(=O)[C@H](CCCCNC(=O)/C=N/O[C@@H]2O[C@@H](C)[C@@H](O)[C@@H](O)[C@@H]2O)NC(=O)CNC(=O)[C@@H]2CCCN2C(=O)[C@H](CCCCNC(=O)/C=N/O[C@@H]2O[C@@H](C)[C@@H](O)[C@@H](O)[C@@H]2O)NC1=O [Compound 12] |  |  |  |  |  |  |  |  |  | 0.08 | 40.4 | 211.0 ± 3 | 170.6 | 0.085 ± 0.016 |  | 5.1 |  | 212 |
